{"source": "patent US20250325480A1", "about": "“Lipid Nanoparticle Compositions and Methods For Formulating Insoluble Drugs” (RESPIRERX PHARMACEUTICALS, INC., priority 2022, published 2025)", "origin": "cited, not measured here", "key": {"[1]": {"test": "not given", "remark": "listed apart in the source"}}}
{"molecule": "CCCCCc1cc(O)c2c(c1)OC(C)(C)[C@@H]1CCC(C)=C[C@@H]21", "note": "[Dronabinol, (−)-trans-Δ^9-tetrahydrocannabinnol]", "values": [{"measurement": "Metabolic breakdown upon first pass through the liver", "setting": "as presently formulated", "value": "approximately 80%"}, {"measurement": "Half-life", "setting": "in vivo", "value": "2 to 3", "unit": "h"}, {"measurement": "Adverse side effects", "setting": "[1]; 10 mg dose, Marinol package insert", "value": "unacceptable adverse side effects"}, {"measurement": "OSA alleviating effects", "setting": "[1]; 2.5 and 10 mg doses, first 4 hours of 8-hour test period", "value": "therapeutically equivalent OSA alleviating effects"}, {"measurement": "Therapeutic effects in OSA", "setting": "[1]; second 4 hours of 8-hour test period", "value": "only the 10 mg dose produced therapeutic effects"}]}
